The values that follow come from patent US8980925B2, “Antimicrobial amphiphiles and methods for their use” (James Madison Innovations, Inc., priority 2010, dated 2015).

Bounds are passed on as bounds.

For assay [1], the system named is Pseudomonas aeruginosa strain Boston 41501 ATCC® 27853™. Put plainly: Broth microdilution MIC and MBC, P. aeruginosa. It counts as cell-based. The following applies: 37° C., 72 h, MBC and MIC values identical. As for the experimental part:
(§1) S. aureus and E. faecalis are Gram-positive pathogens, P. aeruginosa is a Gram-negative pathogen, and E. coli is a non-pathogenic Gram-negative organism.
(§2) The broth microdilution for determining the MIC and MBC of antimicrobial compounds was performed as previously described in Wayne, supra. Briefly, all compounds were serially diluted and 100 μl of each dilution was added to microtiter plate wells in triplicate. Overnight cultures of bacterial cells were diluted to a final inoculum of approximately 5×10^6 cfu/mL, and 100 μl of this suspension was added to all wells yielded 5×10^5 cfu/well. Cell concentrations and viability were verified by serial dilution and plating for each experiment. […] The MBC was determined as the lowest concentration of compound at which there were no colonies growing on the plate.
(§3) MIC values for the compounds of the invention were determined by the broth microdilution method as described herein. […] After microtiter plates were incubated and MICs determined, aliquots from each of the wells were placed on TSA plates and incubated to determine the MBC values for each of the compounds. The MBC was determined as the lowest concentration of compound at which there were no colonies growing on the plate. […] SDS was used for comparison in these studies.

For assay [2], the system named is Escherichia coli ATCC® 25922™. The assay can be described thus: Broth microdilution MIC and MBC, E. coli. The assay is classed as cell-based. Conditions: 37° C., 72 h, MBC and MIC values identical. The method, then: as §1, §2, §3
In assay [3] the test system is Staphylococcus aureus subsp. aureus ATCC® 29213™. Conditions: 100 μM of compound, […]10^6 cfu/ml, room temperature, up to 72 h. The text has this: (§4) Bacterial strains Staphylococcus aureus subsp. aureus ATCC® 29213™, Entercoccus faecalis ATCC® 29212™, Escherichia coli ATCC® 25922™, and Pseudomonas aeruginosa strain Boston 41501 ATCC® 27853™ were obtained from the American type Culture Collection (ATCC, Manassas, Va., USA). S. aureus and E. faecalis are Gram-positive pathogens, P. aeruginosa is a Gram-negative pathogen, and E. coli is a non-pathogenic Gram-negative organism. All strains are reference strains for the Clinical and Laboratory Standards Institute (CLSI) for antimicrobial susceptibility testing of nonfastidious bacteria, and were grown in Mueller-Hinton broth at 37° C. as recommended (Wayne, Pa. National Committee for Clinical Laboratory Standards (2009) Methods for Dilution Antimicrobial Tests for Bacteria That Grow Aerobically—Approved Standard M07-A8).
(§5) Compounds were added to the cultures to a final concentration of 100 μM, and tubes were incubated at room temperature. […] Data reported are times when no colonies were observed growing on plates after overnight incubation.

The test system of assay [4] is Entercoccus faecalis ATCC® 29212™. Conditions: 100 μM of compound, […]10^6 cfu/ml, room temperature, up to 72 h.
Text: as §4, §5

Assay [5] relates to Escherichia coli ATCC® 25922™. Conditions: 100 μM of compound; for time when all cells were killed, E. coli (G−): […]10^6 cfu/ml, room temperature, up to 72 h.
Text: as §4, §5

The test system of assay [6] is Staphylococcus aureus subsp. aureus ATCC® 29213™. The assay can be described thus: Broth microdilution MIC and MBC, S. aureus. It counts as cell-based. The following applies: 37° C., 72 h, MBC and MIC values identical. As for the experimental part: as §1, §2, §3
(In general: In broth dilution the organism is exposed to a series of concentrations in liquid medium.)

Assay [7] relates to Entercoccus faecalis ATCC® 29212™. Put plainly: Broth microdilution MIC and MBC, E. faecalis. The assay is classed as cell-based. The following applies: 37° C., 72 h, MBC and MIC values identical. The method, then:
as §1, §2, §3

Take “1-hexadecyloxy-3,5-bis[(trimethlammonoum bromide)methyl]benzene [3,5-C16 (10)]”: the “MICs and MBCs, P. aeruginosa (G−)” value in assay [1] is greater than 63 µM. In assay [2], the “MICs and MBCs, E. coli (G−)” value turned out to be 63 µM. In addition, the “time when all cells were killed, S. aureus (G+)” value (“time … S. aureus (G+)” below) in assay [3] is 0.25 h. In assay [4], the “time when all cells were killed, E. faecalis (G+)” value (shortened to “time … E. faecalis (G+)”) was found to be 0.25 h. Besides, in assay [5], the “time necessary to kill […]10^6 cfu/mL, E. coli” value is reported as no more than 15 min and the “time when all cells were killed, E. coli (G−)” value (from here on “time … (G−)”) is reported as 0.25 h. For the same molecule, in assay [6], the “MICs and MBCs, S. aureus (G+)” value was 16 µM. In addition, the “MICs and MBCs, E. faecalis (G+)” value in assay [7] is 31 µM.
Turning to “1-tetradecyloxy-2,5-bis(4,4′-bipyridinium)benzene, bis-bromide salt [2,5-C14dipyr (41)]”, the “MICs and MBCs, P. aeruginosa (G−)” value in assay [1] worked out at 125 µM. Besides, the “MICs and MBCs, E. coli (G−)” value in assay [2] was found to be 16 µM. The “MICs and MBCs, S. aureus (G+)” value in assay [6] was found to be 16 µM. The “MICs and MBCs, E. faecalis (G+)” value in assay [7] came out at 31 µM.
For `CCCCCCCCCCCCOS(=O)(=O)[O-].[Na+]` [SDS (13), SDS, reference compound], the “MICs and MBCs, P. aeruginosa (G−)” value in assay [1] was greater than 500 µM. For the same molecule, the “MICs and MBCs, E. coli (G−)” value in assay [2] is greater than 500 µM. The “MICs and MBCs, S. aureus (G+)” value in assay [6] stood at 250 µM. Also, in assay [7], the “MICs and MBCs, E. faecalis (G+)” value is 500 µM.
“[(2-tetradecyloxy-m-phenylene)dimethylene]bis[trimethylamonium bromide] [2,6-C14 (8)]”: the “MICs and MBCs, P. aeruginosa (G−)” value in assay [1] was 500 µM. Further, the “MICs and MBCs, E. coli (G−)” value in assay [2] worked out at 125 µM. Further, the “time … S. aureus (G+)” value in assay [3] is 48 h. The “MICs and MBCs, S. aureus (G+)” value in assay [6] turned out to be 16 µM. Moreover, the “MICs and MBCs, E. faecalis (G+)” value in assay [7] came to 50 µM.
For “[(2-tetradecyloxy-o-phenylene)dimethylene]bis[trimethylamonium bromide] [2,3-C14 (1)]”, the “MICs and MBCs, P. aeruginosa (G−)” value in assay [1] amounted to 125 µM. In addition, in assay [2], the “MICs and MBCs, E. coli (G−)” value came to 63 µM. In addition, the “time … S. aureus (G+)” value in assay [3] was found to be 1 h. In assay [4], the “time … E. faecalis (G+)” value worked out at 24 h. In addition, the “time … (G−)” value in assay [5] was found to be 0.5 h. Moreover, in assay [6], the “MICs and MBCs, S. aureus (G+)” value is 6 µM. Also, the “MICs and MBCs, E. faecalis (G+)” value in assay [7] was found to be 31 µM.
For the molecule “[(5-tetradecyloxy-m-phenylene)dimethylene]bis[trimethylamonium bromide] [3,5-C14 (9)]”, the “MICs and MBCs, P. aeruginosa (G−)” value in assay [1] was greater than 63 µM. Moreover, the “MICs and MBCs, E. coli (G−)” value in assay [2] amounted to 31 µM. For the same molecule, in assay [3], the “time … S. aureus (G+)” value is 1 h. In addition, in assay [4], the “time … E. faecalis (G+)” value came out at 1 h. In addition, in assay [5], the “time … (G−)” value amounted to 1 h. For the same molecule, the “MICs and MBCs, S. aureus (G+)” value in assay [6] was 8 µM. Besides, the “MICs and MBCs, E. faecalis (G+)” value in assay [7] was 31 µM.
On to “[(6-tetradecyloxy-m-phenylene)dimethylene]bis[trimethylamonium bromide] [2,4-C14 (2)]”, for which the “MICs and MBCs, P. aeruginosa (G−)” value in assay [1] was determined as 125 µM. In addition, in assay [2], the “MICs and MBCs, E. coli (G−)” value was 31 µM. Also, the “time … S. aureus (G+)” value in assay [3] is 1 h. Also, the “time … E. faecalis (G+)” value in assay [4] was determined as 2 h. Also, the “time … (G−)” value in assay [5] was determined as 1 h. The “MICs and MBCs, S. aureus (G+)” value in assay [6] was 6 µM. Besides, the “MICs and MBCs, E. faecalis (G+)” value in assay [7] came to 16 µM.
